The subject of the test is mouse embryonic teratocarcinoma F9 cells. Kind of test: differentiation test on mouse embryonic teratocarcinoma cells (F9), secretion of plasminogen activator. In kind it is cell-based. The conditions noted are these: for AC50: concentration of the test product which produces half of the maximum amount of plasminogen activator secreted; for RAR-agonist character concluded from F9 differentiation results: conclusion drawn from the F9 AC50 results. From the text:
Results of differentiation tests on mouse embryonic teratocarcinoma cells (F9) to identify the RAR-agonist molecules as described in Skin Pharmacol. 3, pp. 256-267, 1990.
After treatment with the compounds of the examples cited in the following table, the mouse embryonic teratocarcinoma F9 cells differentiate into endodermal cells. This differentiation is characterized by the secretion of the plasminogen activator into the culture medium.
The activity of the product is expressed by the AC50 value representing the concentration of the test product which produces half of the maximum amount of plasminogen activator secreted.

The values below come from US6818666B2, “Bi-aromatic compounds linked via a heteroethylene radical, and pharmaceutical and cosmetic compositions using them” (Galderma Research & Development, priority 1919, dated 2004).

Consider `Cc1cc2c(cc1[Se]C#Cc1ccc(C(=O)O)c(O)c1)C(C)(C)CCC2(C)C` [Compound 16, 2-Hydroxy-4-(3,5,5,8,8-pentamethyl-5,6,7,8-tetrahydro-2-naphthylselanylethynyl)benzoic acid], for which the “RAR-agonist character concluded from F9 differentiation results” value is reported as “RAR-agonist”. Also, the activity (Mus musculus, F9) was half-maximal at 33 nM (AC50).
The corresponding values for `Cc1cc2c(cc1[Se]C#Cc1ccc(C(=O)O)cn1)C(C)(C)CCC2(C)C` [Compound 18, 6-(3,5,5,8,8-Pentamethyl-5,6,7,8-tetrahydro-2-naphthylselanylethynyl)nicotinic acid] are “RAR-agonist” and 34 nM.
In the same order, the values of `CC1(C)CCC(C)(C)c2cc([Se]C#Cc3ccc(C(=O)O)cc3)ccc21` [Compound 5, 4-(5,5,8,8-Tetramethyl-5,6,7,8-tetrahydro-2-naphthylselanylethynyl)benzoic acid] are “RAR-agonist” and 21 nM.
In the same order, the values of `COC(=O)c1ccc(C#C[Se]c2ccc3c(c2)C(C)(C)CCC3(C)C)cc1` [Compound 4, Methyl 4-(5,5,8,8-tetramethyl-5,6,7,8-tetrahydro-2-naphthylselanylethynyl)benzoate] are “RAR-agonist” and 4 nM.
For the molecule `COC(=O)c1ccc(C#CSc2ccc3c(c2)C(C)(C)CCC3(C)C)cc1` [Compound 1, Methyl 4-(5,5,8,8,-tetramethyl-5,6,7,8-tetrahydro-2-nachthylsuphanylethynyl)-benzoate], the AC50 worked out at 20 nM and the “RAR-agonist character concluded from F9 differentiation results” value was “RAR-agonist”.
Regarding `CC1(C)CCC(C)(C)c2cc(SC#Cc3ccc(C(=O)O)cc3)ccc21` [Compound 2, 4-(5,5,8,8-Tetramethyl-5,6,7,8-tetrahydro-2-naphthylsuphanylethynyl)benzoic acid], half-maximal activity (AC50) was put at 1 nM and the “RAR-agonist character concluded from F9 differentiation results” value is recorded as “RAR-agonist”.

As usually defined, the AC50 is the midpoint of the concentration-response curve, whichever way the signal moves.
